From ChEMBL document CHEMBL3804756 (J Med Chem, 2016)

Experiments:
Histamine H2 receptor [1] = target: T1, Histamine H2 receptor (Homo sapiens, UniProt P25021); experiment: Intrinsic activity at human histamine H2 receptor expressed in sf9 cell membrane co-expressing Gsalphas at 10 uM incubated for 90 mins by [35S]GTPgammaS binding assay relative to histamine; format: functional
Histamine H1 receptor [2] = target: T2, Histamine H1 receptor (Homo sapiens, UniProt P35367); experiment: Displacement of [3H]mepyramine from human histamine H1 receptor expressed in sf9 cell membrane co-expressing RGS4 incubated for 60 mins by liquid scintillation counting method
T2 sequence (P35367 whole entry): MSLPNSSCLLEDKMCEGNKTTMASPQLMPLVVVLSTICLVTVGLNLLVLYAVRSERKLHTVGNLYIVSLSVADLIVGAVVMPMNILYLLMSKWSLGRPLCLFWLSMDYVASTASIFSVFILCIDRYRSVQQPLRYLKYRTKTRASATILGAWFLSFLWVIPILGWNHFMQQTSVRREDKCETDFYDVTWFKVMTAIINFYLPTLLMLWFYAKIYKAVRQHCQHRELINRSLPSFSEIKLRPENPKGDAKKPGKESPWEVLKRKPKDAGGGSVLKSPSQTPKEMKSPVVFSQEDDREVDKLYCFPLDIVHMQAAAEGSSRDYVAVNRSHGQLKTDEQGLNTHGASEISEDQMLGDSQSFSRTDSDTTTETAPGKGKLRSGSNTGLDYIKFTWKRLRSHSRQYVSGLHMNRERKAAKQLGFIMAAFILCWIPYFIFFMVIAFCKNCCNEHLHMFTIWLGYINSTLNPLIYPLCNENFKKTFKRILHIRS

Histamine H3 receptor [3] = target: T3, Histamine H3 receptor (Homo sapiens, UniProt Q9Y5N1); experiment: Intrinsic activity at human histamine H3 receptor expressed in sf9 cell membrane co-expressing mammalian Galphai2 and Gbeta1gamma2 at 10 uM incubated for 90 mins by [35S]GTPgammaS binding assay relative to histamine; format: functional
T3 sequence (Q9Y5N1 whole entry): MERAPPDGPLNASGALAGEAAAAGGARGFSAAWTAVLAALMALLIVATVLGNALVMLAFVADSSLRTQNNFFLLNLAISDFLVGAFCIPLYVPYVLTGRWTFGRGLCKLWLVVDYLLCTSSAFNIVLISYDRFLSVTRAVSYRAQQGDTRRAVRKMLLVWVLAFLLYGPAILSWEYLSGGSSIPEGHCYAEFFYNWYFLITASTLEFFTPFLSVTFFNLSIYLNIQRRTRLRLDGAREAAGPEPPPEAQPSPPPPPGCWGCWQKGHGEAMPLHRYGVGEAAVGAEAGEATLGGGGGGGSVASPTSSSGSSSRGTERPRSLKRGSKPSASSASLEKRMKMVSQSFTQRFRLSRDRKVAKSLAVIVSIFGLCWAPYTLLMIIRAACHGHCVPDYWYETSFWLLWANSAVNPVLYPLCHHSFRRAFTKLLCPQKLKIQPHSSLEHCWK

Histamine H2 receptor [4] = target: T1, Histamine H2 receptor; experiment: Antagonist activity at human histamine H2 receptor expressed in sf9 cell membrane co-expressing Gsalphas assessed as inhibition of histamine-induced [35S]GTPgammaS binding incubated for 90 mins; format: functional
Histamine H3 receptor [5] = target: T3, Histamine H3 receptor; experiment: Agonist activity at human histamine H3 receptor expressed in sf9 cell membrane co-expressing mammalian Galphai2 and Gbeta1gamma2 incubated for 90 mins by [35S]GTPgammaS binding assay; format: functional
Histamine H4 receptor [6] = target: T4, Histamine H4 receptor (Homo sapiens, UniProt Q9H3N8); experiment: Agonist activity at human histamine H4 receptor expressed in sf9 cell membrane co-expressing mammalian Galphai2 and Gbeta1gamma2 incubated for 90 mins by [35S]GTPgammaS binding assay; format: functional
T4 sequence (Q9H3N8 whole entry): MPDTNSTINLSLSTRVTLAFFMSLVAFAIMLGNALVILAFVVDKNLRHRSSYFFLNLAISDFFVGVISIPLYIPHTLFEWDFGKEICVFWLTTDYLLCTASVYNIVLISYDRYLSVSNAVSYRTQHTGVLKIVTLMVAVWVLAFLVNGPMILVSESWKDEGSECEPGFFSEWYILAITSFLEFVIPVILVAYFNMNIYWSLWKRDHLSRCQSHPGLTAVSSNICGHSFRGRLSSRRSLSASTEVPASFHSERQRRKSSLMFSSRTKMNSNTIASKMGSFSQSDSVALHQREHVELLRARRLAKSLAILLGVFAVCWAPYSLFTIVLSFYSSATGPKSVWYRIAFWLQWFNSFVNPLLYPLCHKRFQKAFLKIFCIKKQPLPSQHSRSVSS

Histamine H3 receptor [7] = target: T3, Histamine H3 receptor; experiment: Antagonist activity at human histamine H3 receptor expressed in sf9 cell membrane co-expressing mammalian Galphai2 and Gbeta1gamma2 assessed as inhibition of histamine-induced [35S]GTPgammaS binding incubated for 90 mins; format: functional
Histamine H4 receptor [8] = target: T4, Histamine H4 receptor; experiment: Displacement of [3H]UR-PI294 from human histamine H4 receptor expressed in sf9 cell membrane co-expressing mammalian Galphai2 and Gbeta1gamma2 incubated for 60 mins by liquid scintillation counting method
Histamine H3 receptor [9] = target: T3, Histamine H3 receptor; experiment: Displacement of [3H]N-alpha-methylhistamine from human histamine H3 receptor expressed in sf9 cell membrane co-expressing mammalian Galphai2 and Gbeta1gamma2 incubated for 60 mins by liquid scintillation counting method
Histamine H1 receptor [10] = target: T2, Histamine H1 receptor; experiment: Antagonist activity at human histamine H1 receptor expressed in sf9 cell membrane co-expressing RGS4 assessed as inhibition of histamine-induced increase in 32Pi level preincubated for 2 mins followed by [gamma-32P]GTP addition measured after 20 mins by liquid scintillation counting method

T1 sequence (P25021 whole entry): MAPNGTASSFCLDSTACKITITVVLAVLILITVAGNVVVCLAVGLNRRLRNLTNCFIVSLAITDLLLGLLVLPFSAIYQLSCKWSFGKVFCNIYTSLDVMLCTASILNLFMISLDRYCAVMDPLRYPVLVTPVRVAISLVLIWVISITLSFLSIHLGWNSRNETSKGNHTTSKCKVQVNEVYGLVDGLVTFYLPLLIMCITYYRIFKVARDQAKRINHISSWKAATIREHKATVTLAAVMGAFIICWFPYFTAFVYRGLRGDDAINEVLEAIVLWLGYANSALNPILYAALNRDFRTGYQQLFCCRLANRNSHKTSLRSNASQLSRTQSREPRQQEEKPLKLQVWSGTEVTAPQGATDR

| Compound | Intrinsic activity (Histamine H2 receptor [1]) | Ki (Histamine H1 receptor [2]) | Intrinsic activity (Histamine H3 receptor [3]) | Kb (Histamine H2 receptor [4]) | EC50 (Histamine H3 receptor [5]) | EC50 (Histamine H4 receptor [6]) | Kb (Histamine H3 receptor [7]) | Ki (Histamine H4 receptor [8]) | Ki (Histamine H3 receptor [9]) | Kb (Histamine H1 receptor [10]) |
| --- | --- | --- | --- | --- | --- | --- | --- | --- | --- | --- |
| N#C/N=C(\NC[C@H]1CC[C@H](c2c[nH]cn2)C1)NC1CC1 (racemic) | 0 | > 10 µM | 0.36 | > 10 µM | > 10 µM | 0.23 µM |  |  |  |  |
| N#C/N=C(/NCCOc1ccccc1)NC[C@H]1CC[C@H](c2c[nH]cn2)C1 (racemic) | 0 | > 10 µM | 0 | > 10 µM |  | 0.524 µM | 0.54 µM |  |  |  |
| CN/C(=N\C#N)NC[C@H]1CC[C@H](c2c[nH]cn2)C1 (racemic) [listing 1 of 2 here] |  | > 10 µM |  |  | 0.37 µM | 0.206 µM |  | 0.24 µM | 0.83 µM |  |
| CC(C)CN/C(=N/C#N)NC[C@@H]1CC[C@H](c2c[nH]cn2)C1 (racemic) | 0 | 8.35 µM | 0.5 | > 10 µM | 0.858 µM | 0.202 µM |  |  |  |  |
| N#C/N=C(/NCCNc1ccccc1)NC[C@@H]1CC[C@H](c2c[nH]cn2)C1 (racemic) | 0 | > 10 µM | 0 | > 10 µM |  |  | 0.402 µM |  |  |  |
| N#C/N=C(/NCCNc1ccccc1)NC[C@H]1CC[C@H](c2c[nH]cn2)C1 (racemic) | 0 | > 10 µM | 0 | > 10 µM |  |  | 0.408 µM |  |  |  |
| N#C/N=C(/NCCSc1ccccc1)NC[C@H]1CC[C@H](c2c[nH]cn2)C1 (racemic) [listing 1 of 2 here] |  | 6.08 µM |  |  |  | 0.014 µM |  | 0.099 µM | 1.23 µM |  |
| N#C/N=C(/NCCCc1ccccc1)NC[C@@H]1CC[C@H](c2c[nH]cn2)C1 (racemic) | 0 | 9.35 µM | 0 | > 10 µM |  | 0.372 µM | 0.07 µM |  |  |  |
| N#C/N=C(/NCCOc1ccccc1)NC[C@@H]1CC[C@H](c2c[nH]cn2)C1 (racemic) | 0 | > 10 µM | 0 | > 10 µM |  |  | 0.328 µM |  |  |  |
| N#C/N=C(/NCCSc1ccccc1)NC[C@@H]1CC[C@H](c2c[nH]cn2)C1 (racemic) [listing 1 of 2 here] |  | 3.8 µM |  |  |  | 0.129 µM |  | 0.25 µM | 1.35 µM |  |
| N#C/N=C(/NCCCc1ccccc1)NC[C@H]1CC[C@H](c2c[nH]cn2)C1 (racemic) | 0 | > 10 µM | -0.19 | > 10 µM |  | 0.125 µM | 0.325 µM |  |  |  |
| N#C/N=C(\NC[C@@H]1CC[C@H](c2c[nH]cn2)C1)NC1CC1 (racemic) | 0 | > 10 µM | 0.28 | > 10 µM | 1.53 µM | 0.245 µM |  |  |  |  |
| CN/C(=N\C#N)NC[C@@H]1CC[C@H](c2c[nH]cn2)C1 (racemic) [listing 1 of 2 here] |  | > 10 µM |  |  | 0.547 µM | 0.111 µM |  | 0.155 µM | 0.86 µM |  |
| CC(C)CN/C(=N/C#N)NC[C@H]1CC[C@H](c2c[nH]cn2)C1 (racemic) | 0 | 8.75 µM | 0.54 | > 10 µM | 0.578 µM | 0.015 µM |  |  |  |  |
| CN/C(=N\C#N)NC[C@@H]1CC[C@H](c2c[nH]cn2)C1 (racemic) [listing 2 of 2 here] | 0 |  | 0.51 | > 10 µM |  |  |  |  |  |  |
| CN/C(=N\C#N)NC[C@H]1CC[C@H](c2c[nH]cn2)C1 (racemic) [listing 2 of 2 here] | 0 |  | -0.46 | > 10 µM |  |  |  |  |  |  |
| N#C/N=C(/NCCSc1ccccc1)NC[C@@H]1CC[C@H](c2c[nH]cn2)C1 (racemic) [listing 2 of 2 here] | 0 |  | -0.34 | > 10 µM |  |  | 0.162 µM |  |  | 3.8 µM |
| N#C/N=C(/NCCSc1ccccc1)NC[C@H]1CC[C@H](c2c[nH]cn2)C1 (racemic) [listing 2 of 2 here] | 0 |  | -0.4 | > 10 µM |  |  | 0.246 µM |  |  | 6 µM |
| Cc1nc[nH]c1CCN [4-METHYLHISTAMINE] | 1 |  | 0.7 |  | 12.4 µM |  |  |  |  |  |
